# Source: US20230255872A1, “ORAL CARE COMPOSITIONS AND METHODS” (DENTHERAPY LTD, priority 2020, published 2023)
# Like-named read-outs stand apart in the source and are kept apart here.
# Tests used:
# [1] = Further stain prevention cycling study (Example 8); design: species or system bovine
# Protocol: Introduction. A cycling staining procedure as described in example 6 was again used to measure the staining prevention when bovine enamel was subjected to a cycling staining procedure after being treated with one of four formulations: ToothBoost MOL-6, a 3% solution of OPN pH adjusted to 7.0, a 1.25% solution of sodium bicarbonate pH adjusted to 7.0 and deionised water. The aim of the study was to rank the formulations in terms of their stain prevention capability when bovine enamel was treated with a combination of tea stain and chlorhexidine.
# Method. The enamel cores were treated by spraying the assigned treatment onto the enamel face using a single actuation of the ToothBoost spray pack and incubating for two minutes.
# The enamel specimens were then cycled between a 1% chlorhexidine solution, a solution of strong tea and artificial saliva for approximately ten cycles per day. At the end of the day of cycling the enamel was rinsed and allowed to dry before the enamel colour measured. The cycling continued for a total of three days of cycling. From the L*a*b* measurements the ΔE76 (change in perceivable colour) was calculated. ΔE76=1 is the smallest perceivable colour change that can be observed.
# The cycling continued every day for three days.
# After each set of cycling the enamel was rinsed with deionised water and allowed to dry before colour measurements were made. Fresh solutions were made at the start of each set of cycles.
# Results. The change in colour of the enamel was calculated from the L*a*b* values where the ΔE76 (The difference between enamel colour before and after cycling) was determined from equation 1: […]
# [2] = Vickers microindentation erosive lesion rehardening model, MOK vs MOL (Example 3); settings: bovine enamel, treated twice a day for seven days, spray approx 0.1 ml, N=8
# Protocol: Introduction. […] The objective of the study was to ascertain if formulation development for ToothBoost retained remineralizing efficacy. Four treatment groups were placed in the study: 1. MOK (legacy formulation), 2. Phosphate free ToothBoost MOL (development formulation), 3. 500 ppm fluoride solution made from MFP, 4. Deionised water. N=8 enamel specimens per treatment group.
# Enamel blocks are prepared from sound disease free human molars or bovine incisors and mounted in 25 mm diameter resin discs. After curing the underside of the disc is flattened using p400 grit paper. […]
# The discs are then rinsed under deionised water and sonicated for five minutes. Initial microhardness of the sound enamel is measured by microindentation to determine that the enamel is sufficiently mineralized for the purpose of the study and to record the microhardness of the sound enamel. […]
# Method. […] The microhardness of the de-mineralized enamel is then measured and the enamel discs organised so that each group have a similar range of microhardness values.
# The citric acid eroded bovine enamel specimens were then treated twice a day for seven days. […] At the end of day seven, the enamel specimens were rinsed in deionised water, dried and the micro hardness of the enamel was measured by Vickers microindentation to determine the extent of the re-mineralization of the enamel lesions. […]
# [3] = Protocol: Introduction. The remineralisation potential of three formulations: deionised water, 500 ppm fluoride solution from MFP and fluoride free Toothboost MOL-15 formulation were tested in a standard microindentation erosive lesion rehardening model, as described above in example 3. The objective of this study was to ascertain if fluoride free Toothboost MOL-15 formulation has the potential to remineralise erosive lesions without the presence of fluoride.
# Method. Five times a day for five days human enamel specimens with citric acid erosive lesions were sprayed with 0.15 g of the test formulations and incubated in artificial saliva (containing 1500 units/L of phosphatase) at 37° C. between treatments. The microhardness of the enamel specimens was remeasured after five days and the degree of re-mineralization calculated using the boundary conditions of 100% mineralized for the hardness of the initial enamel before the formation of the lesions and 0% mineralization for the hardness of the enamel after the formation of the lesion.
# [4] = remark: listed apart in the source
# Protocol: Introduction. The remineralisation potential of three formulations: deionised water, 1450 ppm fluoride solution from MFP and fluoride free BoostPaste MON-6 formulation were tested in a standard microindentation erosive lesion rehardening model as described above in example 3. The objective of this study was to ascertain if fluoride free Boostpaste MON-6 formulation has the potential to remineralise erosive lesions without the presence of fluoride.
# Method. Twice a day for five days human enamel specimens with citric acid erosive lesions were brushed with the test formulations and incubated in artificial saliva (containing 1500 units/L of phosphatase) at 37° C. between treatments. The microhardness of the enamel specimens was remeasured each day for five days and the degree of re-mineralization calculated using the boundary conditions of 100% mineralized for the hardness of the initial enamel before the formation of the lesions and 0% mineralization for the hardness of the enamel after the formation of the lesion.
# [5] = after the second round of treatments
compound,measurement,setting,value
O=C([O-])O.[Na+] [sodium bicarbonate],"protection from staining (ΔE76), statistical comparison",[1]; [5],statistically the same
"F [500 ppm fluoride solution, monofluorophosphate]","remineralisation of erosive lesions (Vickers microhardness), statistical comparison",[2],statistically (probability <0.05) better than deionised water
same,"remineralisation of erosive enamel lesions, statistical analysis",[3]; after 5 days of treatment,significant remineralisation
same,calculated remineralisation,"[3]; human enamel, sprayed 0.15 g five times a day for five days, 100% = initial enamel hardness, 0% = after lesion",over 25%
OPN solution: 3% solution of OPN (osteopontin) pH adjusted to 7.0,"protection from staining (ΔE76), statistical comparison",[1]; after the first set of treatments,statistically more protection than sodium bicarbonate solution
same,"protection from staining (ΔE76), statistical comparison",[1]; [5],statistically the same
same,"protection from staining (ΔE76), statistical comparison",[1]; after the third round of treatments,statistically the same
same,"protection from staining (ΔE76), statistical comparison","[1]; after the third round of treatments, listed as OPN",statistically better than sodium bicarbonate
"F [1450 ppm fluoride solution, monofluorophosphate]","remineralisation of erosive lesions, statistical comparison",[4]; brushed twice a day for five days,statistically better than deionised water
same,calculated remineralisation,"[4]; human enamel, brushed twice a day, after five days of treatment, N=10",over 23%
